# Patent US20190274334A1 (MARS, INCORPORATED, priority 2016, published 2019)
# Values joined by “and” are separate entries in the source; they are usually repeats but may differ in a detail not shown here. Equal values may be shown once.
# Key:
# [1] = target: T1, feline CaSR (f:CaSR) (Felis catus, UniProt A0ABI7YY68); assay: in vitro PAM testing of amino acids on feline CaSR, single-injection protocol, shift of calcium EC50; assay type: cell-based; details: for EC50: CaCl2 alone, control of the same experiment, read-out: EC50 of Ca^2+ before the shift (without amino acid)
# T1 sequence (A0ABI7YY68 entry or part of it): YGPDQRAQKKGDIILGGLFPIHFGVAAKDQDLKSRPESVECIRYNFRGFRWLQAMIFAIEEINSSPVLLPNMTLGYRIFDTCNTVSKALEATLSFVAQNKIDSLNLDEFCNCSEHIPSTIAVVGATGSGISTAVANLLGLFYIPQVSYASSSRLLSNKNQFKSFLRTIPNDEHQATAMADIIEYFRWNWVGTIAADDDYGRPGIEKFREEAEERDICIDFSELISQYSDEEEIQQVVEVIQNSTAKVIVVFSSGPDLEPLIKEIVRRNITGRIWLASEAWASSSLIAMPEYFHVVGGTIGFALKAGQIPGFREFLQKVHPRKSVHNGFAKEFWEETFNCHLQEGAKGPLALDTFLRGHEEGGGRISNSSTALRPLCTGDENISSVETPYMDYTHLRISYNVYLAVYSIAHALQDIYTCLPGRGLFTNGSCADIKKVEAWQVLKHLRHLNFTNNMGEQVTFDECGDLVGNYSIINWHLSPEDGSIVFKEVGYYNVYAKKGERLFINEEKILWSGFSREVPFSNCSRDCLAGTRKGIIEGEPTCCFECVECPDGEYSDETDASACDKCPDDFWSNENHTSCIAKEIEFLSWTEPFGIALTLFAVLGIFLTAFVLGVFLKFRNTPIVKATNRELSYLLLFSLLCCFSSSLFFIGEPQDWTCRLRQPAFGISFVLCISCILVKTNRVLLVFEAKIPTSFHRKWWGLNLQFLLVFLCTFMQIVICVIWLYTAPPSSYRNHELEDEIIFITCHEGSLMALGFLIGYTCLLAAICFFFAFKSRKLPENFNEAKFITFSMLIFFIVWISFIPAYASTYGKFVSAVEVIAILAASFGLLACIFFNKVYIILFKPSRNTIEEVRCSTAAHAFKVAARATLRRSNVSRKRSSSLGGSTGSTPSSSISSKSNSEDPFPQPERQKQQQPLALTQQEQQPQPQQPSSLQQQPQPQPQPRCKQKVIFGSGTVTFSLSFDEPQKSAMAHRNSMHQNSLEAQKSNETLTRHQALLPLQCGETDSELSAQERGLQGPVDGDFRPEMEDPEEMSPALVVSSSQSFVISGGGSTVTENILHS
# Protocol: Methods: HEK293TRex/nat-Clytin cells that inducibly express a feline CaSR (f:CaSR) transgene construct was used to screen 30 amino acids to identify compounds that modulate f:CaSR activity. […] The HEK293 cells were seeded at 10,000 cells/well in 384 MTP. 24 hours after cell seeding, cells were loaded with 10 μm coelenterazine in an assay buffer (20 μL/well) for 4 h at room temperature. […] CaCl2 alone was used as a control.
# PAM mode (single-injection): Test compound (6× concentrated) and CaCl2 (6× concentrated) were directly mixed 1:1 on the compound plate to get a 3× concentrated working solution of each test compound and control. 10 μl/well of the test compound or control working mixture was injected, and luminescence (i.e., PAM activity) was measured.
# [2] = target: T1, feline CaSR (f:CaSR); assay: cell-based; assay type: cell-based; details: for Feline CaSR agonist: Yes/No
# [3] = system: feline umami (T1R1/T1R3) receptor; details: cited from earlier work
# [4] = agonist mode, read-out: EC50 (Agonist)
# [5] = double-injection protocol, agonist mode and PAM mode
# [6] = PAM mode, CaCl2 injected at EC20, read-out: EC50 (PAM)
compound,measurement,setting,value
N[C@@H](Cc1c[nH]c2ccccc12)C(=O)O [L-Tryptophan],Activity Type,[1]; single-injection PAM mode,PAMs and PAM
same,Feline CaSR agonist,[2],do not activate
same,Comments: Umami-active for cats,[3],umami-active
[Ca] [Calcium],EC50,[1]; listed as Ca2^+,1300 µM
same,EC50,[1]; listed as Ca^2+,1300 µM and 1500 µM
same,EC50,[2]; [4],1620 µM
same,Activity Type,[2]; [5],Agonist
N=C(N)NCCC[C@H](N)C(=O)O [L-Arginine],Activity Type,[1],PAM EC50 of Ca^2+ moved from 1.5 mM to 0.72 mM in presence of 10 mM L-Arginine
CC(NCCC(Cc1ccccc1)c1ccco1)c1ccccc1 (stereo not drawn) [3-(furan-2-yl)-4-phenyl-N-(1-phenylethyl)butan-1-amine],EC50,[2]; [6],0.673 µM
same,Activity Type,[2]; [5],PAM
Poly-L-lysine,Activity Type,[2],Agonist
"NC(CCC(=O)NC(Cc1c[nH]c2ccccc12)C(=O)O)C(=O)O [γ-D-Glu-Trp, H-gamma-D-Glu-Trp-OH]",EC50,[2]; [4],4200 µM
same,Activity Type,[2]; [5],Agonist
O=P(O)(O)CP(=O)(O)O [Methylenediphosphonic acid],EC50,[2]; [4],1290 µM
same,Activity Type,[2]; [5],Agonist
CSC[C@H](NC(=O)CC[C@H](N)C(=O)O)C(=O)NCC(=O)O [S-Methylglutathione],Activity Type,[2]; [5],Agonist
Cc1ccc(C(CCNC(C)c2cccs2)c2ccco2)cc1 (stereo not drawn) [3-(furan-2-yl)-N-(1-(thiophen-2-yl)ethyl)-3-(p-tolyl)propan-1-amine],EC50,[2]; [6],2.25 µM
same,Activity Type,[2]; [5],PAM
"CNC(C)[C@@H]1CC[C@@H](N)[C@@H](O[C@H]2[C@H](O)[C@@H](O[C@H]3OC[C@](C)(O)[C@H](NC)[C@H]3O)[C@H](N)C[C@@H]2N)O1 (stereo partly drawn) [Gentamicin, reference compound]",EC50,[2]; [4],990 µM
same,Activity Type,[2]; [5],Agonist
CC(C)C[C@H](NC(=O)C[C@H](N)C(=O)O)C(=O)O [H-Asp(Leu-OH)—OH],Activity Type,[2]; [5],Agonist
"OCC(CNC1CCCOc2cc(Cl)ccc21)Cc1ccccn1 (stereo not drawn) [3-((8-chloro-2,3,4,5-tetrahydrobenzo[b]oxepin-5-yl)amino)-2-(pyridin-2-ylmethyl)propan-1-ol]",Activity Type,[2]; [5],PAM
COC(=O)C(N)CC(=O)O (racemic) [DL-Aspartic acid alpha-methyl ester],Activity Type,[2],Agonist
CC[C@H](NC(=O)CC[C@H](N)C(=O)O)C(=O)O,Activity Type,[2]; [5],Agonist
[Pr] [Praseodymium],EC50,[2]; [4],398 µM
same,Activity Type,[2]; [5],Agonist
NCCCCNCCCN [Spermidine],Activity Type,[2]; [5],Agonist
COc1ccc(C(CCNC(C)c2ccc(Cl)cc2)CCC(C)C)cc1 (stereo not drawn) [N-(1-(4-chlorophenyl)ethyl)-3-(4-methoxyphenyl)-6-methylheptan-1-amine],EC50,[2]; [6],115 µM
same,Activity Type,[2]; [5],PAM
N[C@@H](CCC(=O)N[C@@H](Cc1c[nH]c2ccccc12)C(=O)O)C(=O)O [H-Glu(Trp-OH)—OH],Activity Type,[2]; [5],Agonist
"NC[C@H]1O[C@H](O[C@H]2[C@H](O[C@@H]3O[C@H](CO)[C@@H](O)[C@H]3O)[C@@H](O)[C@H](N)C[C@@H]2N)[C@H](N)[C@@H](O)[C@@H]1O [Ribostamycin, reference compound]",Activity Type,[2]; [5],Agonist
NC(CCCCC(=O)O)C(=O)O (racemic) [(±)-2-Aminopimelic acid],Activity Type,[2],Agonist
"Cc1ccc(C2(CCNC(C)c3ccc(Cl)cc3)CCOC(C)(C)C2)cc1 (stereo not drawn) [1-(4-chlorophenyl)-N-(2-(2,2-dimethyl-4-(p-tolyl)tetrahydro-2H-pyran-4-yl)ethyl)ethanamine]",Activity Type,[2]; [5],PAM
N[C@@H](CCC(=O)N[C@@H](CSCc1c[nH]c2ccccc12)C(=O)NCC(=O)O)C(=O)O [3-Glutathionyl-S-methylindole],Activity Type,[2]; [5],Agonist
"C[C@H](NC(=O)CC[C@H](N)C(=O)O)C(=O)O [γ-Glu-Ala, L-gamma-Glutamyl-L-alanine]",Activity Type,[2]; [5],Agonist
"C[C@@H](NCc1cc2ccccc2[nH]1)c1cccc2ccccc12 [Calindol, reference compound]",Activity Type,[2]; [5],PAM
N[C@@H](CCC(=O)N[C@@H](CCC(=O)N[C@@H](CCC(=O)O)C(=O)O)C(=O)O)C(=O)O [H-Glu(Glu(Glu-OH)—OH)—OH],Activity Type,[2],Agonist EC50 2.35 mM
same,EC50,[2]; [4],2350 µM
N[C@@H](CCC(=O)N[C@@H](CS)C(=O)NCC(=O)O)C(=O)O [Glutathione],Activity Type,[2],Agonist EC 50 6.39 mM
"CC(NCC1CCCN(C)C1c1cccs1)c1cc(Cl)c(N)c(Cl)c1 (stereo not drawn) [2,6-dichloro-4-(1-(((1-methyl-2-(thiophen-2-yl)piperidin-3-yl)methyl)amino)ethyl)aniline]",EC50,[2]; [6],8.68 µM
same,Activity Type,[2]; [5],PAM
N[C@@H](CC(=O)N[C@@H](Cc1ccccc1)C(=O)O)C(=O)O [H-Asp(Phe-OH)—OH],Activity Type,[2]; [5],Agonist
N[C@@H](CCC(=O)N[C@@H](Cc1ccc(O)cc1)C(=O)O)C(=O)O [γ-Glu-Tyr],Activity Type,[2]; [5],Agonist
N[C@@H](Cc1ccc(OP(=O)(O)O)cc1)C(=O)O [O-phospho-L-tyrosine],Activity Type,[2]; [5],Agonist
Terbium,EC50,[2]; [4],175 µM
same,Activity Type,[2]; [5],Agonist
NCCCNCCCCNCCCN [Spermine],Activity Type,[2],Agonist
NC(=O)[C@@H](N)CCC(=O)O [L-Isoglutamine],Activity Type,[2]; [5],Agonist
COc1ccccc1C(CCNC(C)c1ccc(Cl)cc1)c1ccc(OC(C)C)cc1 (stereo not drawn) [N-(1-(4-chlorophenyl)ethyl)-3-(4-isopropoxyphenyl)-3-(2-methoxyphenyl)propan-1-amine],EC50,[2]; [6],0.714 µM
same,Activity Type,[2]; [5],PAM
N[C@@H](CC(=O)O)C(=O)O [L-Aspartic acid],Activity Type,[2],Agonist EC50 4.11 mM
N[C@@H](CC(=O)NCC(=O)O)C(=O)O [H-Asp(Gly-OH)—OH],Activity Type,[2]; [5],Agonist
"Cc1ccc(C(C)NC(C)c2cc3ccccc3[nH]2)cc1C (stereo not drawn) [N-(1-(1H-indol-2-yl)ethyl)-1-(3,4-dimethylphenyl)ethanamine]",Activity Type,[2]; [5],PAM
NC(CC(C(=O)O)C(=O)O)C(=O)O (racemic) [γ-Carboxy-DL-glutamic acid],Activity Type,[2],Agonist
Geneticin [reference compound],Activity Type,[2]; [5],Agonist
CC(C)[C@H](NC(=O)CC[C@H](N)C(=O)O)C(=O)NCC(=O)O [γ-Glu-Val-Gly],EC50,[2]; [4],4220 µM
same,Activity Type,[2]; [5],Agonist
N[C@@H](Cc1ccccc1)C(=O)O [L-Phenylalanine],Activity Type,[1]; single-injection PAM mode,PAMs and PAM
same,Feline CaSR agonist,[2],do not activate
same,Comments: Umami-active for cats,[3],umami-active
"c1ccc(C2CCN(C3CCCc4ccccc43)C2)cc1 (stereo not drawn) [3-phenyl-1-(1,2,3,4-tetrahydronaphthalen-1-yl)pyrrolidine]",Activity Type,[2]; [5],PAM
"NC[C@@H]1O[C@H](O[C@H]2[C@@H](O)[C@H](O[C@@H]3[C@@H](O)[C@H](N)C[C@H](N)[C@H]3O[C@H]3O[C@H](CN)[C@@H](O)[C@H](O)[C@H]3N)O[C@@H]2CO)[C@H](N)[C@@H](O)[C@@H]1O [Neomycin, reference compound]",Activity Type,[2],Agonist EC50 1.87 mM
same,EC50,[2],1870 µM
COc1ccc(C(CCNC(C)c2ccc(Cl)cc2)C(C)C)cc1 (stereo not drawn) [N-(1-(4-chlorophenyl)ethyl)-3-(4-methoxyphenyl)-4-methylpentan-1-amine],EC50,[2]; [6],1.44 µM
same,Activity Type,[2]; [5],PAM
N[C@@H](CCC(=O)NCC(=O)O)C(=O)O [H-Glu(Gly-OH)—OH],Activity Type,[2]; [5],Agonist
"CC(=O)N1C=Cc2ccccc2C1CC(=O)NC(C)c1cccc(Br)c1 (stereo not drawn) [2-(2-acetyl-1,2-dihydroisoquinolin-1-yl)-N-(1-(3-bromophenyl)ethyl)acetamide]",EC50,[2]; [6],12.1 µM
same,Activity Type,[2]; [5],PAM
"N[C@@H](C[C@H](O)C(=O)O)C(=O)O [2S,4S-γ-Hydroxy-L-glutamic acid]",Activity Type,[2]; [5],Agonist
"COC(=O)C(NC1CCc2c(F)cccc21)c1cccc(C#N)c1 (stereo not drawn) [methyl 2-(3-cyanophenyl)-2-((4-fluoro-2,3-dihydro-1H-inden-1-yl)amino)acetate]",EC50,[2]; [6],58.9 µM
same,Activity Type,[2]; [5],PAM
"CC(NC1CCc2c(F)cc(Br)cc21)c1ccncc1 (stereo not drawn) [6-bromo-4-fluoro-N-(1-(pyridin-4-yl)ethyl)-2,3-dihydro-1H-inden-1-amine]",Activity Type,[2]; [5],PAM
Poly-L-arginine,Activity Type,[2],Agonist EC50 1.01 uM
same,EC50,[2]; read-out: EC50 (Agonist),1.01 µM
NCCCC[C@H](N)C(=O)O [L-Lysine],Activity Type,[1],PAM EC50 of Ca^2+ moved from 1.5 mM to 0.72 mM in presence of 10 mM L-Lysine
